Test system: TrkB-EGFP
Assay: TrkB dimerization, number & brightness (N&B) in living SH-SY5Y cells
Format: cell-based, human
Settings: 150 ng/mL BDNF or 10 μM d-bdnf, within 30 min; f-EGFP monomeric reference; two independent experiments
Method: Figure 1 Activation of the TrkB receptor by BDNF and its mimetic peptide ligands. (A) Schematic picture of the human TrkB receptor fused to the EGFP construct (hTrkB-EGFP); recombinant human mature BDNF (hBDNF); monomeric peptide, m-bdnf; dimeric peptide, d-bdnf; scrambled s-bdnf. (B) WB showing Tyr phosphorylation (p-Tyr, top) and total TrkB levels (bottom) in SH-SY5Y cells transfected with hTrkB-EGFP in the absence (ctrl) or presence of 10 min stimulation with 150 ng/mL BDNF or 10 μM m-bdnf, d-bdnf, or s-bdnf. Samples were immunoprecipitated (IP) with the anti-GFP antibody before WB. […] (C) Scatter dot plot of ERK (left) and AKT (right) phosphorylation levels detected in differentiated SH-SY5Y cells, after stimulation with the same treatments as in (B). […] (G) Bar graph of mean ± SD ‘B-1’ values retrieved from N&B analysis for all the different conditions measured. […]
The same TrkB-GFP expressing SH-SY5Y cells were used to deeper investigate the mechanism of TrkB activation induced by d-bdnf, using an advanced imaging approach in living cells. We exploited a fluorescence correlation technique, which directly correlates the brightness of each fluorescent pixel of the image to the number of TrkB molecules averagely populating that pixel during the observation time (number & brightness technique—N&B[34],[35]). […]

“HSDPARRGELSVC-C-VSLEGRRAPDSH (disulfide) [d-bdnf]” was tested, and the “TrkB monomer/dimer state at plasma membrane” value was “shift toward the dimeric form”.

B1: brain-derived neurotrophic factor (protein, UniProt P23560 1-247, looked up)
chain: MTILFLTMVISYFGCMKAAPMKEANIRGQGGLAYPGVRTHGTLESVNGPKAGSRGLTSLADTFEHVIEELLDEDQKVRPNEENNKDADLYTSRVMLSSQVPLEPPLLFLLEEYKNYLDAANMSMRVRRHSDPARRGELSVCDSISEWVTAADKKTAVDMSGGTVTVLEKVPVSKGQLKQYFYETKCNPMGYTKEGCRGIDKRHWNSQCRTTQSYVRALTMDSKKRIGWRFIRIDTSCVCTLTIKRGR
modifications: full-length
notes: full-length human BDNF produced recombinantly in Escherichia coli
In the case of B1, the “TrkB monomer/dimer state at plasma membrane” value is reported as “shift toward the dimeric form”.

From paper PMC9732821, “Neurotrophic Activity and Its Modulation by Zinc Ion of a Dimeric Peptide Mimicking the Brain-Derived Neurotrophic Factor N-Terminal Region” (ACS Chemical Neuroscience, 2022)
